From EP3661951B1, “GENES AND METHODS FOR BIOTECHNOLOGICAL PRODUCTION AND COMPARTMENTALIZATION OF HIGH ADDED VALUE APOCAROTENOIDS” (Agenzia Nazionale Per Le Nuove Tecnologie, L'Energia E Lo …, priority 2017, dated 2019) come the findings set out here.

The test system of test [1] is Crocus sativus CsABCC2 transporter (SEQ ID NO 14). The test can be described thus: In vitro transport assay ("transportomics") with yeast microsomes, inhibition by Probenecid. Type of test: biochemical. Conditions: Probenecid 1 mM, microsomes pre-incubated 10 minutes at room temperature; saffron hydroalcoholic extract as substrate; net ATP-dependent transport after 15 minutes; S. cerevisiae ybt1 microsomes. As to the method:
(§1) A new in vitro assay was prepared, differing from the classical transportation assay wherein the vesicles are left to incubate for pre-established periods of time with the putative substrate, washed, lysed and the content analysed by liquid chromatography coupled to a UV/visible detector. With respect to the works existing in literature relating the in-vitro functional characterization of transporters, the present invention introduces the concept of "transportomics": the assay is based upon the transportation analysis, performed by LC-HRMS, of all molecules existing in the saffron extract. This approach, providing the use of a raw extract instead of commercial purified standards, allows to characterize the transportation even of molecules which are not commercially available; moreover, as it is based upon data obtained with high resolution mass spectrometry, rather than with photodiode series detector (PDA), the system is extremely sensitive and it allows to appreciate the transportation of low abundant metabolites.
(§2) With this method, then, it was observed that the two ABCC transporters are capable of transporting different crocins apart from some flavonoids (figure 10b, black bars). […]

The test system of test [2] is Crocus sativus CsABCC1 transporter (SEQ ID NO 12). Described as above. Type of test: biochemical. The conditions noted are these: Probenecid 1 mM, microsomes pre-incubated 10 minutes at room temperature; saffron hydroalcoholic extract as substrate; net ATP-dependent transport after 15 minutes; S. cerevisiae ybt1 microsomes. As to the method: as §1, §2

On to `CCCN(CCC)S(=O)(=O)c1ccc(C(=O)O)cc1` [Probenecid], for which the “transportation of saffron metabolites (crocins) in presence of Probenecid inhibitor” value in test [1] and in test [2] was “considerable transportation reduction” throughout.
